Source: patent US20080227764A1 (published 2008)

Legend:
[1] = test system: rats with experimental insulin-dependent diabetes mellitus; conditions: intravenous morphine; diabetic rats; cited from earlier work
[2] = test system: Male Wistar rats; assay: Sedation: resting time in open field activity monitor; assay type: in vivo, rat
[3] = test system: diabetic neuropathic rats; assay: Streptozotocin diabetic neuropathic pain model (Example 1): noxious electrical current, tail flick latency, paw pressure; assay type: in vivo, rat
[4] = test system: diabetic neuropathic male Wistar rats; assay: Paw pressure (Randall Selitto) anti-nociception in rats with diabetic neuropathy (Example 2); assay type: in vivo, rat

## CN1CC[C@]23c4c5ccc(O)c4O[C@H]2[C@@H](O)C=C[C@H]3[C@H]1C5 [morphine]
[1]
  doses inducing dose-dependent anti-nociceptive effect relative to normal rats: twice as high

## COc1ccc2c3c1O[C@H]1C(=O)CC[C@@]4(O)[C@@H](C2)N(C)CC[C@]314 [oxycodone, reference compound]
[2]; oxycodone 0.25 and 0.125 mg/kg intraperitoneally
  resting times compared with saline controls: decreased resting times
[2]; oxycodone doses less than 1.0 mg/kg intraperitoneally, 30 minutes
  resting times compared with saline controls: did not increase resting times
[3]; oxycodone 250 μg/kg given alone
  anti-nociceptive action in diabetic neuropathic pain (ECT, TFL, paw pressure): minimally responsive

## CC(=O)OCC(=O)[C@H]1CC[C@H]2[C@@H]3CC[C@H]4C[C@H](O)CC[C@]4(C)[C@H]3C(=O)C[C@]12C [alphadolone acetate, 21-acetoxy-3α-hydroxy-5α-pregnane-11,20-dione]
[2]; alphadolone acetate 60 mg/kg intraperitoneally
  resting times compared with saline controls: decreased resting times
[2]; alphadolone acetate doses less than 100 mg/kg intraperitoneally, 30 minutes
  resting times compared with saline controls: did not increase resting times
[3]; alphadolone acetate 6 mg/kg ip given alone
  anti-nociceptive action in diabetic neuropathic pain (ECT, TFL, paw pressure): minimally responsive
[4]; alphadolone acetate 1.0 mg/kg given alone
  anti-nociception to paw pressure: ineffective
[4]; alphadolone acetate 10 mg/kg intraperitoneally (maximum dose), given alone
  reversal of the allodynia and hyperalgesia to paw pressure: 80%
[4]; alphadolone acetate given alone intraperitoneally, FIG. 9
  anti-nociceptive effects, dose response: dose related anti-nociceptive effects
[4]; alphadolone acetate given alone, the two dose response curves overlay each other
  potency in rats with diabetic neuropathy compared with normal weight matched rats: same potency
